Source: patent US20170096426A1 (published 2017)

## CCCCCn1c2ccccc2c2cc(C(=O)c3ccccc3)ccc21
  melting point: 116 to 117 °C
